Laboratory results reported in PubChem BioAssay AID449764 (Southern Research Specialized Biocontainment Screening …, 2010).

Test system: Mycobacterium tuberculosis H37Rv growth inhibition, no glycerol
Experiment: Confirmatory growth inhibition assay, Mycobacterium tuberculosis H37Rv, absence of glycerol (AID 449764);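 further: growth read after 7 days of incubation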
Settings: for IC90: measured here: IC90 growth inhibition

| SMILES | IC50 | IC90 |
| --- | --- | --- |
| Cc1nc(-c2ccc(Cl)cc2)sc1C1(C)CC(c2ccc(C#N)cc2)=NO1 (stereo not drawn) | 43.6 µM | > 100 µM |
| CCOC(=O)CN[C@H]1CCC2C3CC=C4C[C@@H](O)CC[C@]4(C)C3CC[C@@]21C (stereo partly drawn) | 3.53 µM | 14.3 µM |
| COc1ccc(-c2cc(C3CCN(C(=O)OC(C)(C)C)CC3)[nH]n2)cc1 | 38.7 µM | 53.7 µM |
| CC/C(C)=N/NC(=S)NCc1ccco1 | 81.1 µM | 91.7 µM |
| COc1cccc(Nc2ccc([N+](=O)[O-])c3nonc23)c1 | 9.9 µM | 14.5 µM |
| CCOc1cc(CNCCCN2CCOCC2)cc(Br)c1OCC(=O)Nc1cccc(C(F)(F)F)c1 | 23.3 µM | 32 µM |
| CCc1ccc2nc(N3C(=O)C(O)=C(C(=O)c4ccco4)C3c3cccs3)sc2c1 (stereo not drawn) | 86.3 µM | 95.2 µM |
| COCc1nnc(NC(=O)C2CC(=O)N(c3ccc(C)c(Cl)c3)C2)s1 (stereo not drawn) | 76.5 µM | > 100 µM |
| CO[C@@H]1[C@@H](OC(N)=O)[C@@H](O)C(Oc2ccc3c(O)c(NC(=O)c4ccc(O)c(CC=C(C)C)c4)c(=O)oc3c2C)OC1(C)C (stereo partly drawn) | 9.33 µM | 14.5 µM |
| CCCCCC(O)c1cccc(OCc2ccc3ccccc3n2)c1 (stereo not drawn) | 35.4 µM | 56 µM |
| CCCCCCCCn1cnc2c(N)c(C)c(C)cc21 | 59.8 µM | 78.3 µM |
| O=C(Oc1ccccc1-c1nnco1)c1ccc(Cl)cc1 | 27.8 µM | 73.6 µM |
| CCOC(=O)c1ccc2c(c1)C(=O)N(C1CCCCC1)C2=O | 85 µM | > 100 µM |
| O=C(NCc1ccccn1)C(=O)Nc1nc(C23CC4CC(CC(C4)C2)C3)cs1 | 6.5 µM | 14.7 µM |
| Cc1ccc2[nH]c(C(=O)NN=C3CCCCC3)c(-c3ccccc3)c2c1 | 33.6 µM | 53.3 µM |
| O=C(COC(=O)C1=COCCO1)NCc1ccc(Cl)cc1 | 28.1 µM | > 100 µM |
| CN(C)CCCN(C(=O)c1cc(-c2cccs2)nc2ccccc12)c1nc2ccc(F)cc2s1 | 34.9 µM | 54.3 µM |
| CC1(C)Cc2c(C#N)c(N3CCN(C(=O)c4ccccc4)CC3)nc(Cc3ccccc3)c2CO1 | 31.4 µM | 46.9 µM |
| C=CCNC(=O)c1onc(CCl)c1C(=O)OC | 5.76 µM | 14.2 µM |
| COc1cccc2sc(Nc3nnc(-c4cccs4)o3)nc12 | 33.9 µM | 42.7 µM |
| COc1ccc2c3n(nc2c1)CCN=C3c1cc(Cl)c(N)c(Cl)c1 | 94.1 µM | 97.7 µM |
| Cn1c(=O)c(C(=O)NNC(=O)c2cccc(Cl)c2)c(O)c2ccccc21 | 2.78 µM | 3.14 µM |

| SMILES | IC50 | IC90 |
| --- | --- | --- |
| Cc1ccc(C)c(NC(=O)c2cc(-c3ccccc3)nn2-c2ccccc2)c1 | 34.6 µM | 55.9 µM |
| S=C(NN=C1CCN(Cc2ccccc2)CC1)NC1CCCCC1 | 43.6 µM | 47 µM |
| COc1ccc(-n2nc3c(c2NC(=O)CCl)CSC3)cc1 | 6.92 µM | 12.5 µM |
| COc1ccc(NC(=O)/C(Cl)=C(/Cl)S(=O)Cc2ccc(C)cc2)cn1 (stereo not drawn) | < 0.2 µM | 0.36 µM |
| CCOC(=O)CSc1nsc(SCC(=O)OCC)c1C#N | 11.9 µM | 13.5 µM |
| CCOc1ccc(C2c3[nH]c4ccccc4c3C[C@H]3C(=O)N(C4CCN(Cc5ccccc5)CC4)CC(=O)N23)cc1OC (stereo partly drawn) | 23.7 µM | > 100 µM |
| COCCNC(=S)N/N=C(\C)c1ccc(OC)cc1 | 43.6 µM | 49 µM |
| CCCOc1ccc(N2CC(C(=O)Nc3ccccn3)CC2=O)cc1 (stereo not drawn) | 36.4 µM | > 100 µM |
| CCOC(=O)c1cc(/C(C)=N/OC(=O)c2ccc(C(C)(C)C)cc2)on1 | 22.9 µM | 26.8 µM |
| O=C(OCC(=O)N1CCN(c2ccccc2)CC1)c1cnc(Cl)c(Cl)c1 | 27 µM | 58.1 µM |
| O=C(Nc1ncc(Cc2ccccc2Cl)s1)C1=NCCN1 | 23.7 µM | > 100 µM |
| CCCCCCCCNC(=O)CCNC(=O)c1ccc(C(C)(C)C)cc1 | 34.3 µM | 41.9 µM |
| Cc1ccc(Nc2nc(CSc3nnc(-c4cccs4)o3)cs2)cc1 | 43.3 µM | > 100 µM |
| O=c1cc(CCl)nc(Cc2c(Cl)cccc2Cl)[nH]1 | 10.5 µM | > 100 µM |
| CC1CN(c2ccc([N+](=O)[O-])c(NCCOc3ccc(Cl)cc3)c2)CC(C)N1 (stereo not drawn) | 15.5 µM | 31.2 µM |
| CCOC(=O)c1sc2nc(C)nc(SC(C)C(=O)N(C)c3ccccc3)c2c1C (stereo not drawn) | 34.8 µM | 44.6 µM |
| CN(C)CCNc1ncnc2c1sc1nc(-c3ccccc3)c3c(c12)CCCC3 | 22.5 µM | 24.2 µM |
| O=C(C[n+]1cc(-c2ccc(Cl)cc2)n2c1CCC2)Nc1nc(-c2ccccc2)cs1 | 23.4 µM | 26.7 µM |
| CN1C(=O)/C(=C/c2cccc(Cl)c2)Sc2ccc(C(=O)N3CCCC3)cc21 | 20.6 µM | 49.9 µM |
| O=C(CSC(=S)N1CCCC1)c1cc(Br)cc(Br)c1O | 41.2 µM | 45.4 µM |
| COc1ccccc1OCCN1CSC(=S)N(C)C1 | 17.8 µM | 23.9 µM |
| Cc1ccnc(N2CCC(C(=O)Nc3cccc(C(F)(F)F)c3)CC2)n1 | 46.3 µM | > 50 µM |
